Assay results: US20230087560A1, “HYDROFLUORETHERS AND METHODS OF USING SAME” (3M INNOVATIVE PROPERTIES COMPANY, priority 2020, published 2023)

What was measured:
[1] = Chemical stability in the presence of triethylamine (TEA); format: physicochemical; conditions: 50° C.
Method: (§1) Chemical Stability: Stability of compounds in the presence of the bases triethylamine (TEA), 1,4-diazabicyclo[2.2.2]octane (DABCO), and N,N,N,N-tetramethylethylene diamine (TMEDA) was tested as follows. To a 20 mL vial equipped with a magnetic stir bar were added the exemplary and comparative materials in the following starting amounts: Example 1-0.30 g (1.0 mmol), CE4-0.30 g (1.0 mmol) and CE5-0.30 g (1.0 mmol). FC-770 (0.40 g, 1.0 mmol) was added as an internal standard since it is known to be stable in the presence of the base materials tested herein. To this mixture was added one of: triethylamine (0.10 g, 1.0 mmol), DABCO (0.10 g, 0.89 mmol), or TMEDA (0.12 g, 1.0 mmol). The resultant mixture was stirred at 50° C. for 24 hours. GC-FID analysis was performed at specific time intervals to monitor the remaining hydrofluoroether and comparative materials present in the mixture.

[2] = Chemical stability in the presence of DABCO; format: physicochemical; conditions: 50° C.
Method: as §1

[3] = Chemical stability in the presence of TMEDA; format: physicochemical; conditions: 50° C.
Method: as §1

[4] = Chemical stability in the presence of NMP, fluoride ion content; format: physicochemical; conditions: 50° C., 144 h, aqueous layer
Method: Stability of compounds in the presence of N-methylpyrrolidinone (NMP) was tested as follows. To a 20 mL glass vial equipped with a magnetic stir bar was added 0.66 g of NMP (6.7 mmol) and one of the following exemplary or comparative materials in the following starting amounts: Example 1-2.0 g (6.7 mmol); CE4-2.0 g (6.7 mmol); CE5-2.0 g (6.7 mmol), or CE6-2.40 g (6.7 mmol). This mixture was then stirred at 50° C. for 144 h. To the resultant mixture was added H2O (6.0 mL) and the aqueous layer was evaluated for fluoride ion content. The samples were analyzed using an Orion EA 940 meter with an Orion 9609BNWB Fluoride-ISE. Orion Ionplus Fluoride standards were used to calibrate the meter.

[5] = tested on: rats; assay: Toxicity screening study in rats, 4-hour inhalation; format: in vivo
Method: To a 3-neck flask equipped with a magnetic stir bar and reflux condenser were charged 1,1,1,3,3,4,4,4-octafluoro-2-(trifluoromethyl)butan-2-olate cesium salt (300 g of a 33 wt % solution in diglyme, 237 mmol). The resultant reaction mixture was heated to 70° C. followed by the dropwise addition of iodomethane (17 mL, 273 mmol). The reaction mixture was allowed to stir overnight at the same temperature. After cooling to room temperature, H2O (400 mL) was added and the mixture was transferred to a 2 L separatory funnel. The bottom, fluorochemical layer was then separated and analyzed by GC-FID indicating a 58% yield of the title compound. Distillation afforded the desired 1,1,1,2,2,4,4,4-octafluoro-3-methoxy-3-(trifluoromethyl)butane (77° C., 740 mm/Hg, 32.1 g, 45% isolated yield) as a colorless liquid. The identity of the purified composition was confirmed by GC-MS analysis.

[6] = Specific heat capacity (Cp) by DSC; format: physicochemical
Method: Specific heat capacity (Cp): Cp was measured using a TA Instruments Model Q2000 DSC (Differential Scanning Calorimeter) instrument. A sapphire standard was run before and after the samples and the average of the measured sapphire heat capacity vs. the theoretical heat capacity was used to correct the measured heat capacity of the sample.

[7] = Kinematic viscosity, Schott-Ubbelohde viscometers; format: physicochemical
Method: Kinematic viscosity: Kinematic viscosity was measured using Schott-Ubbelohde Viscometers (glass capillary viscometers). The viscometers were timed using a viscometer timer available under the trade designation AVS-350 from SI Analytics, College Station, Tex., USA. The viscometer measurement stand and glass viscometer were immersed in a temperature-controlled liquid bath filled with NOVEC 7500 fluid available from 3M Company, Maplewood, Minn., USA. The temperature-controlled liquid bath (available from Lawler Manufacturing Corporation, Edison, N.J., USA), was fitted with a copper tubing coil for liquid nitrogen cooling with fine temperature control provided by the bath's electronic temperature control heater. The fluid was mechanically stirred to provide uniform […] temperature in the bath. The bath controlled the temperature within +0.1° C., measured by a built-in RTD temperature sensor. The sample liquid was added to the viscometer between the two fill lines etched on the viscometer. The viscometer timer automatically pumped the sample fluid above the upper timing mark, then released the fluid and measured the efflux times between the upper and lower timing marks. The fluid meniscus was detected by optical sensors as it passed each timing mark. The sample was drawn up and measured repeatedly; results are provided as averages of multiple determinations. The glass viscometers were calibrated using certified kinematic viscosity standard fluids available from Cannon Instrument Company, State College, Pa., USA, to obtain a calibration constant (cSt/sec) for each viscometer. Kinematic viscosity in centiStokes (cSt) was calculated as the average efflux time (sec) times the viscometer calibration constant (cSt/sec).

[8] = Pour point, determined visually; format: physicochemical
Method: One to two milliliters of the sample were placed in a vial and cooled in a bath until it solidified. The sample was then allowed to warm slowly in the bath and observed every 3-5° C.

With `COC(F)(C(F)(F)F)C(F)(C(F)(F)F)C(F)(F)F` (centres unmarked) [CE4, 1,1,1,2,3,4,4,4-octafluoro-2-methoxy-3-(trifluoromethyl)butane] the “Mole % of Starting Material” value ([1]; 0 hr) was 100 Mole %, the “Mole % of Starting Material” value ([1]; 16 hr) was 100 Mole % and the “Mole % of Starting Material” value ([1]; 24 hr) was 96.7 Mole %. For the same compound, the “Mole % of Starting Material” value ([2]; 0 hr) was 100 Mole %, the “Mole % of Starting Material” value ([2]; 16 hr) was 66.7 Mole % and the “Mole % of Starting Material” value ([2]; 24 hr) was 56.7 Mole %. The “Mole % of Starting Material” value ([3]; 0 hr) was 100 Mole %, the “Mole % of Starting Material” value ([3]; 16 hr) was 53.3 Mole % and the “Mole % of Starting Material” value ([3]; 24 hr) was 53.3 Mole %. It also gave a Fluoride ion content [4] of 388.8 ppm.
In the case of `COC(F)(F)C(F)(C(F)(F)F)C(F)(F)C(F)(F)F` (centres unmarked) [CE5, 2-(difluoro(methoxy)methyl)-1,1,1,2,3,3,4,4,4-nonafluorobutane], the “Mole % of Starting Material” value ([1]; 0 hr) is reported as 100 Mole %, the “Mole % of Starting Material” value ([1]; 16 hr) is reported as 100 Mole % and the “Mole % of Starting Material” value ([1]; 24 hr) is reported as 86.7 Mole %. The “Mole % of Starting Material” value ([2]; 0 hr) was 100 Mole %, the “Mole % of Starting Material” value ([2]; 16 hr) was 46.7 Mole % and the “Mole % of Starting Material” value ([2]; 24 hr) was 43.3 Mole %. The “Mole % of Starting Material” value ([3]; 0 hr) was 100 Mole %, the “Mole % of Starting Material” value ([3]; 16 hr) was 36.7 Mole % and the “Mole % of Starting Material” value ([3]; 24 hr) was 36.7 Mole %. The Fluoride ion content [4] was 657.8 ppm.
In the case of `COC(C(F)(F)F)(C(F)(F)F)C(F)(F)C(F)(F)F` [Example 1, 1,1,1,2,2,4,4,4-octafluoro-3-methoxy-3-(trifluoromethyl)butane], the “4-hour inhalation LC50” value [5] is reported as > 1,840 ppm, the “Mole % of Starting Material” value ([1]; 0 hr) is reported as 100 Mole % and the “Mole % of Starting Material” value ([1]; 16 hr) is reported as 100 Mole %. The “Mole % of Starting Material” value ([1]; 24 hr) was 100 Mole %, the “Mole % of Starting Material” value ([2]; 0 hr) was 100 Mole % and the “Mole % of Starting Material” value ([2]; 16 hr) was 100 Mole %. The “Mole % of Starting Material” value ([2]; 24 hr) was 100 Mole %, the “Mole % of Starting Material” value ([3]; 0 hr) was 100 Mole % and the “Mole % of Starting Material” value ([3]; 16 hr) was 100 Mole %. For the same compound, the “Mole % of Starting Material” value ([3]; 24 hr) was 100 Mole % and the Fluoride ion content [4] was 15.1 ppm.
For `COC(C(F)(F)C(F)(F)F)(C(F)(F)C(F)(F)F)C(F)(F)C(F)(F)F` [Example 3, 1,1,1,2,2,4,4,5,5,5-decafluoro-3-methoxy-3-(1,1,2,2,2-pentafluoroethyl)pentane], the “Specific Heat Capacity” value [6] was 1.16 J/g · K, the “Kinematic Viscosity” value ([7]; 0.0 ° C.) was 0.97 cSt and the “Kinematic Viscosity” value ([7]; −10.0 ° C.) was 1.65 cSt. For the same compound, the “Kinematic Viscosity” value ([7]; −20.0 ° C.) was 2.15 cSt, the “Kinematic Viscosity” value ([7]; −30.0 ° C.) was 2.88 cSt and the “Kinematic Viscosity” value ([7]; −40.0 ° C.) was 5.19 cSt. For the same compound, the pour point [8] was −62 °C.
